Measurements reported in patent US20080119513A1, “Sulfonamide Derivative Selectively Inhibiting Mmp-13” (priority 2004, published 2008).

Columns and labels:
Type in all cases: biochemical
MMP-8 = target: T1, MMP-8 (Homo sapiens, UniProt P22894); assay: Assay for inhibitory activities on MMPs (fluorogenic peptide substrate), MMP-8
T1 construct: In regard to MMP-8, catalytic domain (^99Phe˜^262Gly) was amplified with PCR; His-tag; enterokinase digestion-site
Description: In regard to MMP-8, catalytic domain (^99Phe˜^262Gly) was amplified with PCR using commercial available Human Bone Marrow cDNA. This was cloned in Escherichia coli expression vector pTrc99AHE inserted with His-tag sequence and enterokinase digestion-site, induced and expressed by IPTG (Isopropyl-β-D-thiogalactopyranoside) and expressed in a insoluble fraction (Than F. Ho, M. Walid Qoronfleh, Robert C. Wahl, Trica A. Pulvino, Karen J. Vavra, Joe Falvo, Tracey M. Banks, Patricia G. Brake and Richard B. Ciccarelli: Gene expression, purification and characterization of recombinant human neutrophil collagenase. Gene 146, (1994) 297-301. It was prepared by the method in a slight modification). Isolation of MMP-8 from an insoluble fraction was carried out by dissolving in modifier (6 M urea) by a usual method and purification with metal chelate chromatography. And then removing modifier (6 M urea) with dialysis and refolding of the enzyme spontaneously gave activated MMP-8.
(§1) The enzymatic activity on MMPs was analyzed by the method described in “C. Graham Knight, Frances Willenbrock and Gillian Murphy: A novel coumarin-labelled peptide for sensitive continuous assays of the matrix metalloproteinases: FEBS LETT., 296, (1992), 263-266”. The substrate: MOCAc-Pro-Leu-Gly-Leu-A2Pr(DNP)-Ala-Arg-NH2 was purchased from Peptide Institute, Inc., Osaka, Japan. The measurement of the inhibitory activities (IC50) was carried out by the following four methods;
(§2) (A) Reaction with substrate, enzyme (MMPs) and inhibitor
(§3) (B) Reaction with substrate and inhibitor, without enzyme
(§4) (C) Reaction with substrate and enzyme (MMPs), without inhibitor
(§5) (D) Reaction with substrate only
(§6) IC50 values were calculated by using the following formula and each fluorescence values of above four methods (A to D).
(§7) % inhibition={1-(A−B)/(C−D)}×100
(§8) IC50 means the concentration required to inhibit 50% of the enzyme activity.
(§9) The value of inhibitory activity against MMP-2, MMP-8, MMP-9, MMP-12, and MMP-13 measured by above mentioned methods are shown in Table 25 and 26.

MMP-12 = target: T2, MMP-12 (Homo sapiens, UniProt P39900); assay: Assay for inhibitory activities on MMPs (fluorogenic peptide substrate), MMP-12
T2 construct: In regard to MMP-12, catalytic domain (^100Phe˜^263Gly) was amplified with RT-PCR; His-tag; enterokinase digestion-site
Protocol: In regard to MMP-12, catalytic domain (^100Phe˜^263Gly) was amplified with RT-PCR from Human Placenta Total RNA. This was cloned in Escherichia coli expression vector pTrc99AHE inserted with His-tag sequence and enterokinase digestion-site, induced and expressed by IPTG (Isopropyl-β-D-thiogalactopyranoside) and expressed in an insoluble fraction. Isolation of MMP-12 from an insoluble fraction was carried out by dissolving in modifier (6 M urea) by a usual method and purification with metal chelate chromatography (Ni Chelateing Sepharose). And then removing modifier (6 M urea) with dialysis and refolding of the enzyme spontaneously gave activated MMP-12.
as §1, §2, §3, §4, §5, §6, §7, §8, §9

MMP-9 = MMP-9 (Homo sapiens, UniProt P14780); assay: Assay for inhibitory activities on MMPs (fluorogenic peptide substrate), MMP-9
Description: MMP-9 was isolated and purified by the procedure of Y. Okada et al. (Yasunori Okada, Yukio Gonoji, Katsumi Naka, Katsuro Tomita, Isao Nakanishi, Kazushi Iwata, Kyoko Yamashita, and Taro Hayakawa: Matrix metalloproteinase 9 (92-kDa gelatinase/type IV collagenase) from HT1080 human fibrosarcoma cells. Purification and activation of the precursor and enzymic properties, J. Biol. Chem., 1992, 267, 21712-21719) in combination with other following methods: 1) Yasunori Okada, Tatsuhisa Morodomi, Jan J, Enghild, Ko Suzuki, Atsushi Yasui, Isao Nakanishi, Guy Salvesen and Hideaki Nagase: Matrix metalloproteinase 2 from human rheumatoid synovial fibroblasts. Purification and activation of the precursor and enzymic properties, Eur. J. Biochem., 1990, 194, 721-730; 2) Robin V Ward, Rosalind M Hembry, John J Reynolds and Gillian Murphy: The purification of tissue inhibitor of metalloproteinase-2 from its 72 kDa progelatinase complex. Biochem. J., 1991, 278, 179-187. In detail, human fibrosarcoma ATCC HT1080 cell line was cultured to confluent in Dulbecco's Modified Medium (DMEM) containing 10% fetal-calf serum at 37° C. for 48 hours. Subsequently, the medium of confluent culture was changed to serum-free DMEM medium. To obtain MMP-9, phorbol-12-myristate-13-acetate (TPA) must be added to this serum-free DMEM medium at a concentration of 50 ng/ml. The TPA-treated medium was centrifuged at 3000 rpm for 15 min, and the supernatant was concentrated to 450 ml by a Toyo-Roshi UP-20 apparatus with an ultrafiltration membrane. Then, proMMP-9 in this concentrated solution was purified by using columns of Gelatin-Sepharose and Concanavalin A-Sepharose. The pool containing proMMP-9 was dialyzed, concentrated (Toyo-Roshi UP-20) and applied to columns of Sephacryl S-200 and Green A matrix for the separation from TIMPs. The obtained proMMP-9 fraction was activated by TPCK-Trypsin (Final conc.: 3 μg/501 React Mix.).
as §1, §2, §3, §4, §5, §6, §7, §8, §9

MMP-13 = target: T3, MMP-13 (Homo sapiens, UniProt P45452); assay: Assay for inhibitory activities on MMPs (fluorogenic peptide substrate), MMP-13
T3 construct: catalytic domain (^104Tyr˜^267Gly) was amplified with RT-PCR; His-tag; enterokinase digestion-site
Protocol: In regard to MMP-13, mRNA was prepared from carcinoma cell SW1353 derived from human cartilage stimulate by IL-1 and TNF, and catalytic domain (^[…]) was amplified with RT-PCR. This was cloned in Escherichia coli expression vector […] inserted with His-tag sequence and enterokinase digestion-site, induced and expressed by IPTG (Isopropyl-β-D-thiogalactopyranoside) and expressed in an insoluble fraction. Isolation of MMP-13 from an insoluble fraction was carried out by dissolving in modifier (6 M urea) by a usual method and purification with metal chelate chromatography (Ni […] Sepharose). And then removing modifier (6 M urea) with dialyze and refolding of the enzyme spontaneously gave activated MMP-13. The enzymatic activity on MMPs was analyzed by the method described in “C. Graham Knight, Frances Willenbrock and Gillian Murphy: A novel coumarin-labelled peptide for sensitive continuous assays of the matrix metalloproteinases: FEBS LETT., 296, (1992), 263-266”. The substrate: MOCAc-[…] was purchased from Peptide Institute, Inc., Osaka, Japan. The measurement of the inhibitory activities (IC50) was carried out by the following four methods; (A) Reaction with substrate, enzyme (MMPs) and inhibitor (B) Reaction with substrate and inhibitor, without enzyme (C) Reaction with substrate and enzyme (MMPs), without inhibitor (D) Reaction with substrate only IC50 values were calculated by using the following formula and each fluorescence values of above four methods (A to D). % inhibition={1-(A-B)/(C-D)}×100 IC50 means the concentration required to inhibit 50% of the enzyme activity. The value of inhibitory activity against MMP-2, MMP-8, MMP-9, MMP-12, and MMP-13 measured by above mentioned methods are shown in Table 25 and 26.

MMP-2 = target: T4, MMP-2 (Homo sapiens, UniProt P08253); assay: Assay for inhibitory activities on MMPs (fluorogenic peptide substrate), MMP-2
T4 sequence (P08253 110-660): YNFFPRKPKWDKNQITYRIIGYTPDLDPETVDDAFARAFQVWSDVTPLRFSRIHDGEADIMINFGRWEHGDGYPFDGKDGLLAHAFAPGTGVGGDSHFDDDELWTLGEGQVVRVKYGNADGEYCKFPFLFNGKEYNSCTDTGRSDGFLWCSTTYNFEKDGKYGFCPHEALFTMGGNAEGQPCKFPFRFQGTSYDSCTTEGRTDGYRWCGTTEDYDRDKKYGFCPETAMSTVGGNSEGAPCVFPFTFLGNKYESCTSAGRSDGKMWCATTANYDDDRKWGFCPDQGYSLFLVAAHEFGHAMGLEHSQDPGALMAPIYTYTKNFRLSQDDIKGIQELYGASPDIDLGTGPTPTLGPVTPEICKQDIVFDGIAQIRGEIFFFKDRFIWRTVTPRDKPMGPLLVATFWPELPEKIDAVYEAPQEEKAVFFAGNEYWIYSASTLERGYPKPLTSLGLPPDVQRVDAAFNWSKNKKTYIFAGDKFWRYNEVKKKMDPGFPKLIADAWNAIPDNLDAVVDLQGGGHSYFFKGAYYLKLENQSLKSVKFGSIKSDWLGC
Protocol: MMP-2 was purchased from Calbiochem-Novabiochem International, Inc.
as §1, §2, §3, §4, §5, §6, §7, §8, §9

T1 sequence (P22894 99-262): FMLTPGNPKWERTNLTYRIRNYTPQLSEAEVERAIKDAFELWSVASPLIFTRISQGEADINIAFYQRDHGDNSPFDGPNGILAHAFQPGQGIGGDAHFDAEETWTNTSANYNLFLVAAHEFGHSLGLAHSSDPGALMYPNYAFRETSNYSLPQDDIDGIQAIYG
T2 sequence (P39900 100-263): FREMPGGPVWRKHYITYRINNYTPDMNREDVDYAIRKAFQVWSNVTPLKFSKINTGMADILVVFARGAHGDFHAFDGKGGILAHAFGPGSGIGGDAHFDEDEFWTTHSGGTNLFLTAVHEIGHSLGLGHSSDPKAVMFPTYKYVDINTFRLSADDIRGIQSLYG
MMP-9, sequence (P14780 107-707): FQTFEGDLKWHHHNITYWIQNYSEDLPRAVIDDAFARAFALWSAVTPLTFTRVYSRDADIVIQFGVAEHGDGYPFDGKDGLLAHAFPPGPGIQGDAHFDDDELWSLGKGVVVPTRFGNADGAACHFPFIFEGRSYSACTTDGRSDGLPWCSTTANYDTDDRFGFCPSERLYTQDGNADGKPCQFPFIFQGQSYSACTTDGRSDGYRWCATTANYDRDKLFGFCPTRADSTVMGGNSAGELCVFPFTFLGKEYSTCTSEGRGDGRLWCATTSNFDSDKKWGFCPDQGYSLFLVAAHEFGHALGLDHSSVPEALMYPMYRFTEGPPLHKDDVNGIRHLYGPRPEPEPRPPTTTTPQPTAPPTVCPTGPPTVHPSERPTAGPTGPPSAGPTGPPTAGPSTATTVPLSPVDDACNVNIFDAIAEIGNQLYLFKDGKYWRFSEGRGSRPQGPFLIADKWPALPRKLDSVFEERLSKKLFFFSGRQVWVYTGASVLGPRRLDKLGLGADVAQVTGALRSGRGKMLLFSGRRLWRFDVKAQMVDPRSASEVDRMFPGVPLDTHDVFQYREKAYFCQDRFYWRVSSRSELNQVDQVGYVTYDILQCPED

SMILES | IC50 (MMP-8) [nM] | IC50 (MMP-12) [nM] | IC50 (MMP-9) [nM] | IC50 (MMP-13) [nM] | IC50 (MMP-2) [nM]
O=C(Nc1ccc(-c2ccc(S(=O)(=O)N[C@H](Cc3ccccc3)C(=O)O)cc2)cc1)c1ccccc1 [VI-2] | > 10000 | > 10000 | > 10000 | 73.6 | 371
COc1ccc(C(=O)Nc2ccc(-c3ccc(S(=O)(=O)N[C@H](C)C(=O)O)cc3)cc2)cc1OC [VI-24] | 1520 | 443 | > 10000 | 50.1 | 839
COc1ccc2cc(C#Cc3ccc(-c4ccc(S(=O)(=O)N[C@H](CCSC)C(=O)O)cc4)cc3)ccc2c1 [III-24] | 190 | 146 | > 10000 | 6.32 | 239
CC(C)Oc1cccc(C#Cc2ccc(-c3ccc(S(=O)(=O)N[C@@H](C)C(=O)O)cc3)cc2)c1 [III-60] | – | – | – | 97.8 | 1170
O=C(O)[C@H](Cc1ccccc1)NS(=O)(=O)c1ccc(-c2ccc(C#Cc3ccc4ccccc4c3)cc2)cc1 [III-12] | 270 | 888 | > 10000 | 35.7 | 8990
O=C(C#Cc1ccccc1)Nc1ccc(-c2ccc(S(=O)(=O)N[C@H](Cc3ccccc3)C(=O)O)cc2)cc1 [VI-13] | 641 | 503 | > 10000 | 27.2 | 167
COc1ccc2cc(C#Cc3ccc(-c4ccc(S(=O)(=O)NC5(C(=O)O)CCCCC5)cc4)cc3)ccc2c1 [III-66] | – | – | – | 42.4 | > 10000
CC(C)[C@@H](NS(=O)(=O)c1ccc(-c2ccc(COc3ccc4ccccc4c3)cc2)cc1)C(=O)O [VII-12] | 140 | 95.7 | > 10000 | 26.2 | 3720
O=C(Nc1ccc(-c2ccc(S(=O)(=O)N[C@H](Cc3ccccc3)C(=O)O)cc2)cc1)c1ccc2ccccc2c1 [VI-10] | > 10000 | > 10000 | > 10000 | 21.4 | > 10000
COCc1cccc(C#Cc2ccc(-c3ccc(S(=O)(=O)N[C@@H](CC(C)C)C(=O)O)cc3)cc2)c1 [III-64] | – | – | – | 21.1 | 261
COCc1cccc(C#Cc2ccc(-c3ccc(S(=O)(=O)N[C@@H](C)C(=O)O)cc3)cc2)c1 [III-62] | – | – | – | 18.9 | 402
CSCC[C@H](NS(=O)(=O)c1ccc(-c2ccc(OCc3ccc4ccccc4c3)cc2)cc1)C(=O)O [VII-9] | – | – | – | 26.5 | 188
Cc1c(C(=O)Nc2ccc(-c3ccc(S(=O)(=O)N[C@H](Cc4ccccc4)C(=O)O)cc3)cc2)oc2ccccc12 [VI-46] | – | – | – | 96.5 | 747
C[C@@H](NS(=O)(=O)c1ccc(-c2ccc(COc3ccc4ccccc4c3)cc2)cc1)C(=O)O [VII-11] | – | – | – | 16.2 | > 10000
O=C(O)[C@H](CO)NS(=O)(=O)c1ccc(-c2ccc(C#Cc3ccc4[nH]ccc4c3)cc2)cc1 [III-56] | – | – | – | 6.05 | 65.7
C[C@H](NS(=O)(=O)c1ccc(-c2ccc(C#Cc3cccc(C(=O)O)c3)cc2)cc1)C(=O)O [III-61] | – | – | – | 6.17 | 349
COCc1cccc(C#Cc2ccc(-c3ccc(S(=O)(=O)N[C@H](C(=O)O)C(C)C)cc3)cc2)c1 [III-63] | – | – | – | 9.5 | 144
CC(C)(C)[C@H](NS(=O)(=O)c1ccc(-c2ccc(OCc3ccc4ccccc4c3)cc2)cc1)C(=O)O [VII-8] | – | – | – | 7.93 | 91
COc1ccc2cc(C#Cc3ccc(-c4ccc(S(=O)(=O)N[C@H](Cc5ccc(O)cc5)C(=O)O)cc4)cc3)ccc2c1 [III-46] | – | – | – | 9.12 | 57.5
COc1ccc2cc(COc3ccc(-c4ccc(S(=O)(=O)N[C@@H](C)C(=O)O)cc4)cc3)ccc2c1 [VII-10] | – | – | – | 16.5 | > 10000
O=C(Nc1ccc(-c2ccc(S(=O)(=O)N[C@@H](Cc3ccccc3)C(=O)O)cc2)cc1)c1cc2ccccc2s1 [VI-48] | – | – | – | 47.3 | > 10000
Cc1nc2cc(C#Cc3ccc(-c4ccc(S(=O)(=O)N[C@@H](C)C(=O)O)cc4)cc3)ccc2s1 [III-54] | – | – | – | 11.3 | 147
O=C(O)[C@H](CO)NS(=O)(=O)c1ccc(-c2ccc(C#Cc3ccc4sccc4c3)cc2)cc1 [III-55] | – | – | – | 10.9 | 494
COc1ccc2cc(C#Cc3ccc(-c4ccc(S(=O)(=O)NC5(C(=O)O)CCCC5)cc4)cc3)ccc2c1 [III-65] | – | – | – | 172 | > 10000
